Measurements: patent US5962533A, “Hydroxy polyamines” (priority 1996, dated 1999)
Structures can show the parent of a compound that is named as a salt.

What was measured:
[1] = Chronic toxicity, one dose per day for five days; format: in vivo
Method: In the chronic toxicity regimen, mice were administered the polyamine analogue as one dose per day for five days. Appetite, weight and overall physical appearance were recorded at the time of each injection. After the treatment regimen had been completed, the animals were observed an additional 10 days. The chronic toxicity dosing regimen was set up so that at least one test group was presented with a high fraction of lethalities.

[2] = test system: castor oil-induced diarrhea; assay: Castor oil-induced diarrhea; format: in vivo, rat
Text: Castor Oil-Induced Diarrhea. Male Sprague-Dawley rats (350-400 g) were fasted overnight in hanging wire cages and allowed free access to water.

[3] = Acute toxicity, single intraperitoneal injection; details: 325 mg/kg intraperitoneal, five female CD-1 mice

CCNCC[C@@H](O)CNCCCCNC[C@H](O)CCNCC [(HO)2 DEHSPM, N^1,N^14 -Diethyl-3(R),12(R)-dihydroxyhomospermine tetrahydrochloride]
# deaths/# animals ([1]; 70 mg/kg per day×5 days): 0/5 | # deaths/# animals ([1]; 80 mg/kg per day×5 days): 0/5 | # deaths/# animals ([1]; 90 mg/kg per day×5 days): 0/10 | # deaths/# animals ([1]; 100 mg/kg per day×5 days): 1/5 | # deaths/# animals ([1]; 120 mg/kg per day×5 days): 2/5 | deaths ([1]; 20, 40 and 60 mg/kg per day×5 days, groups of six animals): No deaths | LD40 ([1]; mice): 120 mg/kg per day×5 days | necropsy conclusion in severely affected animals ([1]; mouse, in vivo): potently blocks gastric transport | LD50 ([1]; mouse, in vivo, mice, subchronic regimen, read-out: LD50 estimated from the slope of the toxicity curve): 130 mg/kg | prevention of castor oil-induced diarrhea ([2]; 1 mg/kg, rat): not an effective anti-diarrheal agent | prevention of castor oil-induced diarrhea ([2]; 2.5 mg/kg, rat, six hour observation): partially effective | prevention of castor oil-induced diarrhea ([2]; 5 mg/kg subcutaneous, rat, six hour assay): as effective as DEHSPM at preventing diarrhea | prevention of castor oil-induced diarrhea ([2]; 18 kg/mg, rat): effectively prevented the onset of diarrhea | minimal effective dose ([2]; Rattus norvegicus, sc, read-out: minimum effective dose for prevention of diarrhea): 5 mg/kg | stool output / diarrhea during 6 hour assay (FIG. 8) ([2]; subcutaneous injection 30 minutes before castor oil 5 ml/kg, rat): virtually no stool output | deaths after single dose [3]: Three of the five animals died
